# Tested on: LTD4
# Experiment: LTD4 antagonism in guinea-pig trachea (in vitro test)
# Type: cell-based
# Details: Cavia porcellus, 0.5 h; 10^-6 g/ml test compound; LTD4 2×10^-8 g/ml; isolated guinea-pig trachea
# Procedure: (§1) SRS-A is a mixture of leukotriene C4 (hereinafter referred to as LTC4), leukotriene D4 (hereinafter referred to as LTD4), leukotriene E4 (hereinafter referred to as LTE4) and the like. Accordingly, antagonistic activities against SRS-A can be evaluated by one of the following two test methods:
# LTD4 antagonism in guinea-pig trachea
# Antagonism for LTD4 was determined in isolated male guinea-pig (300-400 g) trachea prepared as spiral strip. Tracheal preparations were suspended under 1 g tension in 10 ml organ baths containing 5 μM of indomethacin and they were incubated for 1 hr prior to use. Contractile responses to LTD4 (2×10^-8 g/ml) were obtained after the maximal response to histamine (10^- 4 M). Test compounds dissolved in 100% dimethyl sulfoxide were added to the organ baths (final concentration of 10^-6 g/ml or 10^-7 g/ml) 30 min prior to LTD4 addition, and then contractile responses to LTD4 were compared with those of control which was obtained from a paired trachea in the absence of test compounds. LTD4 -induced contractions were expressed as a percentage of the maximal response to histamine. The antagonism was determined as follows:
# Antagonism (%)=(1.0 - % contraction in test/% contraction in control)×100
# In parenthesis in Table 2, LTD4 antagonisms by test compounds at a concentration of 10^-7 g/ml are shown.
row,Compound,inhibition at 1 µg/mL [%]
1,CCCOc1cc(CN(C)c2cn[nH]c(=O)c2Cl)ccc1OC [Compound No. 5],54
2,CCCCOc1cc(CN(C)c2cn[nH]c(=O)c2Cl)ccc1OC [Compound No. 7],50
3,"CCCOc1cc(CNc2c([N+](=O)[O-])n[nH]c(=O)c2Cl)ccc1OC [Compound No. 22, 4-chloro-5-(3-n-propoxy-4-methoxybenzylamino)-6-nitro-3(2H)pyridazinone]",59
4,"CCCOc1cc(CNc2c(N)n[nH]c(=O)c2Cl)ccc1OC [Compound No. 23, 4-chloro-5-(3-n-propoxy-4-methoxybenzylamino)-6-amino-3(2H)pyridazinone]",51
5,"CCCCOc1cc(CNc2c(N)n[nH]c(=O)c2Br)ccc1OC [Compound No. 30, 4-bromo-5-(3-n-butoxy-4-methoxybenzylamino)-6-amino-3(2H)pyridazinone]",38
6,CCCCCCOc1cc(CNc2c([N+](=O)[O-])n[nH]c(=O)c2Br)ccc1OC [Compound No. 33],93
7,CCOc1cc(CNc2c(OCC)nn(CC)c(=O)c2Br)ccc1OC [Compound No. 48],99
8,"CCCOc1cc(CNc2c(OCC)nn(CC)c(=O)c2Cl)ccc1OC [Compound No. 50, 2-ethyl-4-chloro-5-(3-n-propoxy-4-methoxybenzylamino)-6-ethoxy-3(2H)pyridazinone]",95
9,CCOc1cc(CNc2c(OC(C)C)nn(CC)c(=O)c2Cl)ccc1OC [Compound No. 51],94
10,CCOc1cc(CNc2c(OC(C)C)nn(CC)c(=O)c2Br)ccc1OC [Compound No. 52],100
11,CCCOc1cc(CNc2c(OC(C)C)nn(CC)c(=O)c2Cl)ccc1OC [Compound No. 53],100
12,C=CCOc1nn(CC)c(=O)c(Br)c1NCc1ccc(OC)c(OCC)c1 [Compound No. 56],100
13,CCCOc1cc(CNc2c(OC(C)C)n[nH]c(=O)c2Cl)ccc1OC [Compound No. 67],100
14,"CCCCOc1cc(CNc2c(OCC)n[nH]c(=O)c2Cl)ccc1OC [Compound No. 68, 4-chloro-5-(3-n-butoxy-4-methoxybenzylamino)-6-ethoxy-3(2H)pyridazinone]",92
15,CCCCOc1cc(CNc2c(OC(C)C)n[nH]c(=O)c2Cl)ccc1OC [Compound No. 69],100
16,"CCCOc1cc(CNc2c(Cl)n[nH]c(=O)c2Cl)ccc1OC [Compound No. 71, 4,6-dichloro-5-(3-n-propoxy-4-methoxybenzylamino)-3(2H)pyridazinone]",66
17,CCC(C)Oc1n[nH]c(=O)c(Cl)c1NCc1ccc(OC)c(OC)c1 (stereo not drawn) [Compound No. 89],96
18,CCOc1cc(CNc2c(OC(C)c3ccccc3)n[nH]c(=O)c2Cl)ccc1OC (stereo not drawn) [Compound No. 91],100
19,"CCCSc1n[nH]c(=O)c(Cl)c1NCc1ccc(OC)c(OC)c1 [Compound No. 92, 4-chloro-5-(3,4-dimethoxybenzylamino)-6-n-propylmercapto-3(2H)pyridazinone]",63
20,"CCCc1c(OCC(O)COc2ccc3c(=O)cc(C(=O)O)oc3c2CCC)ccc(C(C)=O)c1O (stereo not drawn) [FPL-55712, reference compound]",94
21,COc1ccc(CN(C)c2cn[nH]c(=O)c2Br)cc1OCCc1ccccc1 [compound 10],66
22,CCCOc1cc(CNc2c([N+](=O)[O-])n[nH]c(=O)c2Br)ccc1OC [compound 27],72
23,COc1ccc(CNc2c([N+](=O)[O-])n[nH]c(=O)c2Cl)cc1OCCc1ccccc1 [compound 36],70
24,CCOc1cc(CNc2c(OC)nn(CC)c(=O)c2Cl)ccc1OC [compound 45],50
25,CCOc1cc(CNc2c(OCC)nn(CC)c(=O)c2Cl)ccc1OC [compound 46],73

row,Compound,inhibition at 1 µg/mL [%]
1,CCOc1cc(CNc2c(OC)nn(CC)c(=O)c2Br)ccc1OC [compound 47],79
2,C=CCOc1nn(CC)c(=O)c(Cl)c1NCc1ccc(OC)c(OCCC)c1 [compound 54],95
3,C=CCOc1nn(CC)c(=O)c(Cl)c1NCc1ccc(OC)c(OCC)c1 [compound 55],81
4,CCCOc1cc(CNc2c(OCCC)nn(CC)c(=O)c2Cl)ccc1OC [compound 57],100
5,C#CCOc1nn(CC)c(=O)c(Br)c1NCc1ccc(OC)c(OCC)c1 [compound 58],100
6,CC=CCOc1nn(CC)c(=O)c(Br)c1NCc1ccc(OC)c(OCC)c1 [compound 60],100
7,C=C(C)COc1nn(CC)c(=O)c(Br)c1NCc1ccc(OC)c(OCC)c1 [compound 61],96
8,COc1ccc(CNc2c(OC(C)C)n[nH]c(=O)c2Cl)cc1OC [compound 63],92
9,CCOc1cc(CNc2c(OCC)n[nH]c(=O)c2Cl)ccc1OC [compound 64],90
10,CCOc1cc(CNc2c(OC(C)C)n[nH]c(=O)c2Cl)ccc1OC [compound 65],96
11,CCCOc1cc(CNc2c(OCC)n[nH]c(=O)c2Cl)ccc1OC [compound 66],100
12,CCOc1cc(CNc2c(Cl)n[nH]c(=O)c2Cl)ccc1OC [compound 70],66
13,CCCCCCOc1cc(CNc2c(OC(C)C)n[nH]c(=O)c2Cl)ccc1OC [compound 72],75
14,CCOc1cc(CN(C)c2c(OC)nn(CC)c(=O)c2Br)ccc1OC [compound 73],100
15,CCOc1cc(CN(C)c2c(OCC)nn(CC)c(=O)c2Br)ccc1OC [compound 74],100
16,CCCOc1cc(CNc2c(OCc3ccccc3)nn(CC)c(=O)c2Cl)ccc1OC [compound 75],77
17,CCCOc1cc(CNc2c(OCC)nn(C(C)C)c(=O)c2Cl)ccc1OC [compound 77],50
18,CCCOc1cc(CNc2c(OC(C)C)nn(C(C)C)c(=O)c2Cl)ccc1OC [compound 78],56
19,C=CCOc1nn(C(C)C)c(=O)c(Cl)c1NCc1ccc(OC)c(OCCC)c1 [compound 79],79
20,CCOc1cc(CNc2c(OC)n[nH]c(=O)c2Cl)ccc1OC [compound 80],100
21,CCOc1n[nH]c(=O)c(Cl)c1NCc1ccc(OC)c(OC)c1 [compound 84],59
22,COc1ccc(CNc2c(OCc3ccccc3)n[nH]c(=O)c2Cl)cc1OC [compound 85],85
23,CCOc1cc(CNc2c(OCc3ccccc3)n[nH]c(=O)c2Cl)ccc1OC [compound 86],100
24,COc1ccc(CNc2c(OC(C)c3ccccc3)n[nH]c(=O)c2Cl)cc1OC (stereo not drawn) [compound 90],96
25,COc1ccc(CNc2c(SCC(C)C)n[nH]c(=O)c2Cl)cc1OC [compound 94],68

# Same assay, conditions: Cavia porcellus, 0.5 h; 10^-7 g/ml test compound; LTD4 2×10^-8 g/ml; isolated guinea-pig trachea; read-out: LTD4 Antagonism (%) (in parenthesis)
row,Compound,inhibition at 0.1 µg/mL [%]
1,C=CCOc1nn(CC)c(=O)c(Br)c1NCc1ccc(OC)c(OCC)c1 [Compound No. 56],51
2,CCCOc1cc(CNc2c(OC(C)C)n[nH]c(=O)c2Cl)ccc1OC [Compound No. 67],82
3,CCCCOc1cc(CNc2c(OC(C)C)n[nH]c(=O)c2Cl)ccc1OC [Compound No. 69],83
4,CCC(C)Oc1n[nH]c(=O)c(Cl)c1NCc1ccc(OC)c(OC)c1 (stereo not drawn) [Compound No. 89],55
5,CCOc1cc(CNc2c(OC(C)c3ccccc3)n[nH]c(=O)c2Cl)ccc1OC (stereo not drawn) [Compound No. 91],76
6,"CCCc1c(OCC(O)COc2ccc3c(=O)cc(C(=O)O)oc3c2CCC)ccc(C(C)=O)c1O (stereo not drawn) [FPL-55712, reference compound]",48
7,CCCOc1cc(CNc2c(OCCC)nn(CC)c(=O)c2Cl)ccc1OC [compound 57],37
8,C#CCOc1nn(CC)c(=O)c(Br)c1NCc1ccc(OC)c(OCC)c1 [compound 58],40
9,CC=CCOc1nn(CC)c(=O)c(Br)c1NCc1ccc(OC)c(OCC)c1 [compound 60],38
10,CCCOc1cc(CNc2c(OCC)n[nH]c(=O)c2Cl)ccc1OC [compound 66],48
11,CCOc1cc(CNc2c(OCc3ccccc3)n[nH]c(=O)c2Cl)ccc1OC [compound 86],48
12,COc1ccc(CNc2c(OC(C)c3ccccc3)n[nH]c(=O)c2Cl)cc1OC (stereo not drawn) [compound 90],70

# Tested on: SRS-A
# Experiment: Effect on anaphylactic bronchoconstriction mediated by endogeneously liberated SRS-A in passively sensitized guinea-pig (in vivo test)
# Details: 10 mg/kg orally, 2 hrs before EA challenge
# Description: as §1
# Effect on anaphylactic bronchoconstriction mediated by endogeneously liberated SRS-A in passively sensitized guinea-pig
# Male guinea-pigs (350-450 g) were passively sensitized with intravenous (i.v.) injection of 0.125 ml rabbit anti-EA (egg albumin) serum (Capple Laboratories) 1 to 2 days preceding the experiment. Antigen-induced anaphylactic bronchoconstrictions mediated by endogeneously liberated SRS-A were measured by modified method of Konzett and Rossler (Arch. Exp. Path. Pharmak., 195, 71, 1940). Sensitized guinea-pigs were anaesthetized with intraperitoneal injection of urethane (1.5 g/kg). The right jugular vein was cannulated for the administration of the all agents and trachea was cannulated to record total pulmonary resistance. Guinea-pigs were artificially ventilated by a small animal respirator (Shinano, Model SN-480-7) set at a stroke volume of 4.5 ml and a rate of 50 breaths per min. The change in pulmonary resistance was measured with a pressure transducer (Nihon Kohden, Model TP-602T) connected to a T-tube on the tracheal cannula. The increase in air overflow volume was expressed as a percentage of the maximum bronchoconstriction obtained by clamping off the trachea. Following surgical preparation, the animals were pretreated with indomethacin (2 mg/kg, 10 min), pyrilamine (2 mg/kg, 6 min) and propranolol (0.1 mg/kg, 5 min) prior to the EA challenge (0.2 mg/kg). All test compounds were administered orally 2 hrs before the EA challenge. Inhibition (%) of bronchoconstriction was determined as follows: Inhibition (%)=(1.0 - % maximum bronchoconstriction in test/% maximum bronchoconstriction in control)×100. The maximum bronchoconstriction was 62±6% (Mean±S.E.M; n=6) and the number of test animals was 5-6.
row,Compound,Inhibition (%) of bronchoconstriction [%]
1,"CCCCOc1cc(CNc2c(OCC)n[nH]c(=O)c2Cl)ccc1OC [Compound No. 68, 4-chloro-5-(3-n-butoxy-4-methoxybenzylamino)-6-ethoxy-3(2H)pyridazinone]",63

# Same assay, conditions: 30 mg/kg orally, 2 hrs before EA challenge
row,Compound,Inhibition (%) of bronchoconstriction [%]
1,"CCCCOc1cc(CNc2c(OCC)n[nH]c(=O)c2Cl)ccc1OC [Compound No. 68, 4-chloro-5-(3-n-butoxy-4-methoxybenzylamino)-6-ethoxy-3(2H)pyridazinone]",51
2,CCCCOc1cc(CNc2c(OC(C)C)n[nH]c(=O)c2Cl)ccc1OC [Compound No. 69],52

# Same assay, conditions: oral administration, doses of Table 3; P<0.05
row,Compound,inhibitory effects over the control (in words)
1,"CCCCOc1cc(CNc2c(OCC)n[nH]c(=O)c2Cl)ccc1OC [Compound No. 68, 4-chloro-5-(3-n-butoxy-4-methoxybenzylamino)-6-ethoxy-3(2H)pyridazinone]",significant inhibitory effects
2,CCCCOc1cc(CNc2c(OC(C)C)n[nH]c(=O)c2Cl)ccc1OC [Compound No. 69],significant inhibitory effects

# Tested on: not listed separately
# Experiment: Acute toxicity test (lethal ratio, oral)
# Type: in vivo, CD-1(ICR) strain male mice
# Details: 1200 mg/kg oral; 7 days after administration; experimental number 5
# Procedure: The lethal ratio was determined in CD-1(ICR) strain male mice (5 weeks old) at 7 days after the oral administration of test compounds.
row,Compound,Lethal ratio: Death number
1,"CCCCOc1cc(CNc2c(OCC)n[nH]c(=O)c2Cl)ccc1OC [Compound No. 68, 4-chloro-5-(3-n-butoxy-4-methoxybenzylamino)-6-ethoxy-3(2H)pyridazinone]",0
2,CCCCOc1cc(CNc2c(OC(C)C)n[nH]c(=O)c2Cl)ccc1OC [Compound No. 69],0

# Source: patent publication US4978665A, “3(2H)pyridazinone, and antagonistic agent against SRS-A containing it” (Nissan Chemical Industries Ltd., priority 1987, dated 1990)
